Test results reported in US8975400B2, “2,3-dihydroimidazo[1, 2-c] pyrimidin-5(1 H)-one compounds use as LP-PLA2 inhibitors” (Glaxo Group Limited, priority 2011, dated 2015).
Structures can show the parent of a compound that is named as a salt.

Experiments:
[1] = target: T1, recombinant human Lp-PLA2 (Homo sapiens, UniProt Q13093); experiment: Recombinant human Lp-PLA2 assay (rhLp-PLA2, PED6 assay); type: biochemical; settings: recombinant human Lp-PLA2, PED6 substrate; upper limit for pIC50 in this assay is 9.3
T1 sequence (Q13093 22-441): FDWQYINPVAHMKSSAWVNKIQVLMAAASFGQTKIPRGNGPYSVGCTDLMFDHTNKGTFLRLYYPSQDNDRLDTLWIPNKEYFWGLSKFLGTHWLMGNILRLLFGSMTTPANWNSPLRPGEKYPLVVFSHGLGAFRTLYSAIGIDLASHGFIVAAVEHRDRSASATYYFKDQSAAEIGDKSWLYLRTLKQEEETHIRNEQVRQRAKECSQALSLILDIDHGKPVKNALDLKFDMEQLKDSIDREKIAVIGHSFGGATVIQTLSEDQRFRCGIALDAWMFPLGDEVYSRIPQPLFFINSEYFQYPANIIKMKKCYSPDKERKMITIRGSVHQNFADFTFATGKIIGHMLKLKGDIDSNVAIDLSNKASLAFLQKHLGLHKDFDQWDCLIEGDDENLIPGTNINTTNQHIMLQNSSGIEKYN
Description: (1) Recombinant Human Lp-PLA2 Assay (rhLp-PLA2) (Also Referred to as “PED6” Assay)
N-((6-(2,4-dinitrophenyl)amino)-hexanoyl)-2-(4,4-difluoro-5,7-dimethyl-4-bora-3a,4a-diaza-s-indacene-3-pentanoyl)-1-hexadecanoyl-sn-glycero-3-phosphoethanolamine, triethylammonium salt (PED6) is a commercially available fluorescently-labeled phospholipid, which is commercially available from Invitrogene and Molecular Probes. There is a quenching […] and a Bodipy fluorescein (FL) group in the sn2 position. Upon cleavage with Lp-PLA2, the Bodipy FL group is liberated and then may result in an increase in fluorescence. Inhibitors of Lp-PLA2 therefore prevent this cleavage and no fluorescent increase is observed.
The PED6 assay was run as an unquenched 10 μL assay. The source plate containing the compounds to be tested was prepared by making 1:3 (by volume) serial dilution of the compounds within DMSO on 384-well microplate. Then, 0.01 μL of the compounds on compound source plate were transferred into 384 well Greiner 784076 (black) plates using ECHO liquid dispenser. 5 µL of recombinant human Lp-PLA2 enzyme (4 nM (or 110 pM) rhLp-PLA2 in assay buffer of 50 mM HEPES, pH 7.4, 150 mM NaCl, 1 mM CHAPS) was added to each well of the plate. Plates were centrifuged for 10 sec at 500 rpm. After 30 minutes preincubation, 5 µL of substrate (4 μM (or 5 μM) PED6 [from 5 mM DMSO stock] in assay buffer of 50 mM HEPES, pH 7.4, 150 mM NaCl, 1 mM CHAPS) was added to 384 well Greiner 784076 (black) plates. Plates were centrifuged for 10 sec at 500 rpm. The plate was covered to protect it from light and incubated for 20 min at room temperature. The plates were read for fluorescence intensity at ex: 480/em: 540 using ViewLux microplate imager for Envision spectrofluroimeters pIC50 data, curve and QC analysis was conducted by using XL fit module in Excel.
The compounds described below were tested generally according to the PED6 assay described above.

Lp-PLA2 in human plasma = target: T2, Lp-PLA2 in human plasma (Homo sapiens, UniProt Q13093); experiment: Lp-PLA2 human plasma assay (Thio-PAF assay); type: biochemical; settings: pooled human plasma, 2-thio-PAF substrate; read-out: pIC50 in the thio-PAF assay (converted)
T2 construct: This assay may detect the activity of Lp-PLA2 in human plasma; from tissue; host or cells: pooled human plasma
T2 sequence (Q13093 22-441): T1 sequence (Q13093 22-441)
Description: (3) Lipoprotein-Associated Phospholipase A2 (Lp-PLA2) Human Plasma Assay (Also Referred to as “Thio-PAF Assay”)
The human plasma assay utilizes a thioester analog of PAF (phosphatidylcholine), where hydrolysis yields to the formation of a phospholipid containing a free thiol group. The amount of thiol is quantitated continuously by reacting with CPM (7-diethylamino-3-(4′-maleimidylphenyl)-4-methylcoumarin), a maleimide which increases in fluoresence after Michael addition of thiols. This assay may detect the activity of Lp-PLA2 in human plasma, as determined by specific inhibition by Lp-PLA2 inhibitors.
The thio-PAF assay was run as a quenched 15 μL assay. Compounds source plate was prepared by making 1:3 (by volume) serial dilution of the compounds into pure DMSO on 384-well microplate. 0.01 μL of compounds on compound source plate were transferred to 384 well Greiner 784076 (black) low-volume plates by ECHO liquid dispenser. 8 μL pooled human plasma, which was previously aliquoted and frozen, was added. Plates were centrifuged for 10 sec at 500 rpm. After 30 minutes preincubation, 2 μL of substrate solution comprising 2.5 mM 2-thio-PAF [from ethanol stock], 32 μM CPM [from a DMSO stock] and 3.2 mM NEM (N-ethylmaleimide) [made fresh daily in DMSO] in assay buffer of 50 mM HEPES, pH 7.4, 150 mM NaCl, 1 mM CHAPS was added to 384 well Greiner 784076 (black) low-volume plates by BRAVO liquid handling station. After 2 mins, reaction was quenched with 5 μL of 5% aqueous trifluoroacetic acid (TFA). Plates were covered to protect from light and incubated for 40 min at room temperature. Plates were read at ex: 380/em: 485 using-Envision microplate reader. pIC50 data, curve and QC analysis was conducted by using XLFit module in Excel.

Structure (SMILES)	IC50 [1] [nM]	IC50 (Lp-PLA2 in human plasma) [nM]
N#Cc1cc(COc2cc3n(c(=O)n2)CCN3)ccc1Oc1ccc(C(F)(F)F)nc1 [Example 93, 5-(((5-oxo-1,2,3,5-tetrahydroimidazo[1,2-c]pyrimidin-7-yl)oxy)methyl)-2-((6-(trifluoromethyl)pyridin-3-yl)oxy)benzonitrile, trifluoroacetic acid salt]	≤ 10	≤ 100
O=c1nc(OCc2ccc(Oc3ccc(Cl)c(C(F)(F)F)c3)cc2)cc2n1CCN2 [Example 89, 7-((4-(4-chloro-3-(trifluoromethyl)phenoxy)benzyl)oxy)-2,3-dihydroimidazo[1,2-c]pyrimidin-5(1H)-one]	≤ 10	≤ 1000
CN1CCn2c1cc(OCCc1ccc(Oc3ccc(Cl)c(C(F)(F)F)c3)cc1)nc2=O [Example E13, 7-(4-(4-chloro-3-(trifluoromethyl)phenoxy)phenethoxy)-1-methyl-2,3-dihydroimi-dazo[1,2-c]pyrimidin-5(1H)-one]	≤ 10	≤ 1000
CC(C)N1CCn2c1cc(OCc1ccc(Oc3ccc(F)c(F)c3)c(C#N)c1)nc2=O [Example E53, 2-(3,4-difluorophenoxy)-5-(((1-isopropyl-5-oxo-1,2,3,5-tetrahydroimidazo[1,2-c]pyrimidin-7-yl)oxy)methyl)benzonitrile]	≤ 10	≤ 1000
CN1CCn2c1cc(OCc1ccc(Oc3ccc(F)c(F)c3)c(C#N)c1)nc2=O [Example E34, 2-(3,4-difluorophenoxy)-5-(((1-methyl-5-oxo-1,2,3,5-tetrahydroimidazo[1,2-c]pyrimidin-7-yl)oxy)methyl)benzonitrile]	≤ 10	≤ 100
CN1CCn2c1cc(OCc1ccc(Oc3ccnc(C(F)(F)F)c3)c(C#N)c1)nc2=O [Example E80, 5-(((1-methyl-5-oxo-1,2,3,5-tetrahydroimidazo[1,2-c]pyrimidin-7-yl)oxy)methyl)-2-((2-(trifluoromethyl)pyridin-4-yl)oxy)benzonitrile]	1.26	≤ 100
CN1CCn2c1cc(OCc1ccc(Oc3cccc(C#N)c3)c(C#N)c1)nc2=O [Example E62, 2-(3-cyanophenoxy)-5-(((l-methyl-5-oxo-1,2,3,5-tetrahydroimidazo[1,2-c]pyrimidin-7-yl)oxy)methyl)benzonitrile, trifluoroacetic acid salt]	≤ 10	≤ 1000
CN1CCn2c1cc(OCc1ccc(Oc3cc(F)cc(F)c3)c(F)c1)nc2=O [Example E43, 7-((4-(3,5-difluorophenoxy)-3-fluorobenzyl)oxy)-1-methyl-2,3-dihydroimidazo[1,2-c]pyrimidin-5(1H)-one, trifluoroacetic acid salt]	≤ 10	–

Continued, values first:

IC50 [1] [nM]	IC50 (Lp-PLA2 in human plasma) [nM]	Structure (SMILES)
< 0.501	≤ 100	CN1CCn2c1cc(OCc1ccc(Oc3ccc(C#N)c(C(F)(F)F)c3)c(C#N)c1)nc2=O [Example E78, 4-(2-cyano-4-(((l-methyl-5-oxo-1,2,3,5-tetrahydroimidazo[1,2-c]pyrimidin-7-yl)oxy)methyl)phenoxy)-2-(trifluoromethyl)benzonitrile]
≤ 1	≤ 100	CC(C)N1CCn2c1cc(OCc1ccc(Oc3cccc(C(F)(F)F)c3)c(C#N)c1)nc2=O [Example E51, 5-(((1-isopropyl-5-oxo-1,2,3,5-tetrahydroimidazo[1,2-c]pyrimidin-7-yl)oxy)methy)-2-(3-(trifluoromethyl)phenoxy)benzonitrile, trifluoroacetic acid salt]
≤ 1	≤ 100	CN1CCn2c1cc(OCc1cc(F)c(Oc3ccc(F)c(Cl)c3)c(F)c1)nc2=O [Example E87, 7-((4-(3-chloro-4-fluorophenoxy)-3,5-difluorobenzyl)oxy)-1-methyl-2,3-dihydroimidazo[1,2-c]pyrimidin-5(1H)-one]
≤ 1	≤ 1000	O=c1nc(OCc2ccc(Oc3cc(F)c(F)c(F)c3)c(F)c2)cc2n1CCN2 [Example E77, 7-((3-fluoro-4-(3,4,5-trifluorophenoxy)benzyl)oxy)-2,3-dihydroimidazo[1,2-c]pyrimidin-5(1H)-one, trifluoroacetic acid salt]
